Laboratory results published in patent US8207172B2 (Bayer Intellectual Property GmbH, priority 2004, dated 2012).
Counter-ions that a name gives are not always drawn.

Columns and labels:
[1] = test system: A431 cells (human epidermoid carcinoma); experiment: In vitro tumor cell proliferation assay (Cell Titer-Glo luminescent cell viability), A431; type: cell-based; details: A-431, 72 h, 72 hours of drug exposure, ATP luminescence readout, read-out: IC50, anti-proliferative activity (inhibition of cell proliferation)
How it was run: (§1)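 IC50 values reflect ATP-based luminescence (CellTiter-Glo) after 72 h compound exposure at 37°C. Both lines, A431 and BT474, were plated in RPMI with 10% FBS and received serial dilutions ranging from 100 μM to 64 pM final at 0.1% DMSO.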

[2] = test system: BT474 (human breast carcinoma); experiment: In vitro tumor cell proliferation assay (Cell Titer-Glo luminescent cell viability), BT474; type: cell-based; details: BT-474, 72 h, BT474 cells, 72 hours of drug exposure, ATP luminescence readout, read-out: IC50, anti-proliferative activity (inhibition of cell proliferation)
How it was run: as §1

| SMILES | IC50 [1] [µM] | IC50 [2] [µM] |
| --- | --- | --- |
| CS(=O)(=O)CCNCCn1ncc2c1CCc1c-2sc2ncnc(Nc3ccc(OCc4cccc(F)c4)c(Cl)c3)c12 [Example 85, N-{3-chloro-4-[(3-fluorobenzyl)oxy]phenyl}-3-(2-{[2-(methylsulfonyl)ethyl]amino}ethyl)-4,5-dihydro-3H-pyrimido[5′,4′:4,5]thieno[2,3-e]indazol-6-amine] | ≤ 5 | ≤ 1 |
| Fc1cccc(COc2ccc(Nc3ncnc4sc5c(c34)CCc3c-5cnn3CCN3CCOCC3)cc2Cl)c1 [Example 86, N-{3-chloro-4-[(3-fluorobenzyl)oxy]phenyl}-3-(2-morpholin-4-ylethyl)-4,5-dihydro-3H-pyrimido[5′,4′:4,5]thieno[2,3-e]indazol-6-amine] | ≤ 50 | ≤ 1 |
| Fc1cccc(COc2ccc(Nc3ncnc4sc5c(c34)CCc3c-5cnn3CCN3CCCC3)cc2Cl)c1 [Example 87, N-{3-chloro-4-[(3-fluorobenzyl)oxy]phenyl}-3-(2-pyrrolidin-1-ylethyl)-4,5-dihydro-3H-pyrimido[5′,4′:4,5]thieno[2,3-e]indazol-6-amine] | ≤ 5 | ≤ 1 |
| OCCn1ncc2c1CCc1c-2sc2ncnc(Nc3ccc(F)c(Cl)c3)c12 [Example 88, 2-{6-[(3-chloro-4-fluorophenyl)amino]-4,5-dihydro-3H-pyrimido[5′,4′:4,5]thieno[2,3-e]indazol-3-yl}ethanol] | ≤ 5 | ≤ 5 |
| CS(=O)(=O)OCCn1ncc2c1CCc1c-2sc2ncnc(Nc3ccc(F)c(Cl)c3)c12 [Example 89, 2-{6-[(3-chloro-4-fluorophenyl)amino]-4,5-dihydro-3H-pyrimido[5′,4′:4,5]thieno[2,3-e]indazol-3-yl}ethyl methanesulfonate] | ≤ 50 | ≤ 50 |
| CN1CCN(CCn2ncc3c2CCc2c-3sc3ncnc(Nc4ccc(F)c(Cl)c4)c23)CC1 [Example 90, N-(3-chloro-4-fluorophenyl)-3-[2-(4-methylpiperazin-1-yl)ethyl]-4,5-dihydro-3H-pyrimido[5′,4′:4,5]thieno[2,3-e]indazol-6-amine trifluoroacetate] | ≤ 5 | ≤ 5 |
| OCCN(CCO)CCn1ncc2c1CCc1c-2sc2ncnc(Nc3ccc(F)c(Cl)c3)c12 [Example 91, 2,2′-[(2-{6-[(3-chloro-4-fluorophenyl)amino]-4,5-dihydro-3H-pyrimido[5′,4′:4,5]thieno[2,3-e]indazol-3-yl}ethyl)imino]diethanol trifluoroacetate (salt)] | ≤ 5 | ≤ 5 |
| CS(=O)(=O)CCNCCn1ncc2c1CCc1c-2sc2ncnc(Nc3ccc(F)c(Cl)c3)c12 [Example 92, N-(3-chloro-4-fluorophenyl)-3-(2-{[2-(methylsulfonyl)ethyl]amino}ethyl)-4,5-dihydro-3H-pyrimido[5′,4′:4,5]thieno[2,3-e]indazol-6-amine] | ≤ 5 | ≤ 5 |
| Fc1ccc(Nc2ncnc3sc4c(c23)CCc2c-4cnn2CCNCCN2CCOCC2)cc1Cl [Example 93, N-(3-chloro-4-fluorophenyl)-3-{2-[(2-morpholin-4-ylethyl)amino]ethyl}-4,5-dihydro-3H-pyrimido[5′,4′:4,5]thieno[2,3-e]indazol-6-amine] | ≤ 5 | ≤ 5 |
| Fc1ccc(Nc2ncnc3sc4c(c23)CCc2c-4cnn2CCN2CCNCC2)cc1Cl [Example 94, N-(3-chloro-4-fluorophenyl)-3-(2-piperazin-1-ylethyl)-4,5-dihydro-3H-pyrimido[5′,4′:4,5]thieno[2,3-e]indazol-6-amine] | ≤ 5 | ≤ 5 |
| CN(C)[C@H]1CCN(CCn2ncc3c2CCc2c-3sc3ncnc(Nc4ccc(F)c(Cl)c4)c23)C1 [Example 95, N-(3-chloro-4-fluorophenyl)-3-{2-[3-(dimethylamino)pyrrolidin-1-yl]ethyl}-4,5-dihydro-3H-pyrimido[5′,4′:4,5]thieno[2,3-e]indazol-6-amine] | ≤ 5 | ≤ 1 |
| OCCNCCn1ncc2c1CCc1c-2sc2ncnc(Nc3ccc(F)c(Cl)c3)c12 [Example 96, 2-[(2-{6-[(3-chloro-4-fluorophenyl)amino]-4,5-dihydro-3H-pyrimido[5′,4′:4,5]thieno[2,3-e]indazol-3-yl}ethyl)amino]ethanol] | ≤ 5 | ≤ 1 |
| Fc1ccc(Nc2ncnc3sc4c(c23)CCc2c-4cnn2CCn2ccnc2)cc1Cl [Example 97, N-(3-chloro-4-fluorophenyl)-3-[2-(1H-imidazol-1-yl)ethyl]-4,5-dihydro-3H-pyrimido[5′,4′:4,5]thieno[2,3-e]indazol-6-amine] | ≤ 5 | ≤ 5 |
| CC(C)(C)[Si](C)(C)OCCn1cc2c(n1)CCc1c-2sc2ncnc(Nc3ccc(OCc4ccccn4)c(Cl)c3)c12 [Example 98, 2-(2-{[tert-butyl(dimethyl)silyl]oxy}ethyl)-N-[3-chloro-4-(pyridin-2-ylmethoxy)phenyl]-4,5-dihydro-2H-pyrimido[5′,4′:4,5]thieno[2,3-e]indazol-6-amine] | ≤ 50 | ≤ 1 |

The next lines start with the values.

| IC50 [1] [µM] | IC50 [2] [µM] | SMILES |
| --- | --- | --- |
| ≤ 5 | ≤ 1 | OCCn1cc2c(n1)CCc1c-2sc2ncnc(Nc3ccc(OCc4ccccn4)c(Cl)c3)c12 [Example 99, 2-(6-{[3-chloro-4-(pyridin-2-ylmethoxy)phenyl]amino}-4,5-dihydro-2H-pyrimido[5′,4′:4,5]thieno[2,3-e]indazol-2-yl)ethanol] |
| ≤ 5 | ≤ 1 | OCCn1ncc2c1CCc1c-2sc2ncnc(Nc3ccc(OCc4ccccn4)c(Cl)c3)c12 [Example 100, 2-(6-{[3-chloro-4-(pyridin-2-ylmethoxy)phenyl]amino}-4,5-dihydro-2H-pyrimido[5′,4′:4,5]thieno[2,3-e]indazol-3-yl)ethanol] |
| ≤ 50 | ≤ 1 | Clc1cc(Nc2ncnc3sc4c(c23)CCc2nn(CCBr)cc2-4)ccc1OCc1ccccn1 [Example 101, 2-(2-bromoethyl)-N-[3-chloro-4-(pyridin-2-ylmethoxy)phenyl]-4,5-dihydro-2H-pyrimido[5′,4′:4,5]thieno[2,3-e]indazol-6-amine] |
| ≤ 5 | ≤ 1 | CN1CCN(CCn2cc3c(n2)CCc2c-3sc3ncnc(Nc4ccc(OCc5ccccn5)c(Cl)c4)c23)CC1 [Example 102, N-[3-chloro-4-(pyridin-2-ylmethoxy)phenyl]-2-[2-(4-methylpiperazin-1-yl)ethyl]-4,5-dihydro-2H-pyrimido[5′,4′:4,5]thieno[2,3-e]indazol-6-amine] |
| ≤ 50 | ≤ 1 | COCCNCCn1cc2c(n1)CCc1c-2sc2ncnc(Nc3ccc(OCc4ccccn4)c(Cl)c3)c12 [Example 103, N-[3-chloro-4-(pyridin-2-ylmethoxy)phenyl]-2-{2-[(2-methoxyethyl)amino]ethyl}-4,5-dihydro-2H-pyrimido[5′,4′:4,5]thieno[2,3-e]indazol-6-amine] |
| ≤ 50 | ≤ 1 | Clc1cc(Nc2ncnc3sc4c(c23)CCc2nn(CCn3ccnc3)cc2-4)ccc1OCc1ccccn1 [Example 104, N-[3-chloro-4-(pyridin-2-ylmethoxy)phenyl]-2-[2-(1H-imidazol-1-yl)ethyl]-4,5-dihydro-2H-pyrimido[5′,4′:4,5]thieno[2,3-e]indazol-6-amine] |
| ≤ 5 | ≤ 1 | CS(=O)(=O)CCNCCn1cc2c(n1)CCc1c-2sc2ncnc(Nc3ccc(OCc4ccccn4)c(Cl)c3)c12 [Example 105, N-[3-chloro-4-(pyridin-2-ylmethoxy)phenyl]-2-(2-{[2-(methylsulfonyl)ethyl]amino}ethyl)-4,5-dihydro-2H-pyrimido[5′,4′:4,5]thieno[2,3-e]indazol-6-amine] |
| ≤ 50 | ≤ 1 | Clc1cc(Nc2ncnc3sc4c(c23)CCc2nn(CCN3CCOCC3)cc2-4)ccc1OCc1ccccn1 [Example 106, N-[3-chloro-4-(pyridin-2-ylmethoxy)phenyl]-2-(2-morpholin-4-ylethyl)-4,5-dihydro-2H-pyrimido[5′,4′:4,5]thieno[2,3-e]indazol-6-amine] |
| ≤ 5 | ≤ 1 | CNCCn1cc2c(n1)CCc1c-2sc2ncnc(Nc3ccc(OCc4ccccn4)c(Cl)c3)c12 [Example 107, N-[3-chloro-4-(pyridin-2-ylmethoxy)phenyl]-2-[2-(methylamino)ethyl]-4,5-dihydro-2H-pyrimido[5′,4′:4,5]thieno[2,3-e]indazol-6-amine] |
| ≤ 50 | ≤ 1 | CCNCCn1cc2c(n1)CCc1c-2sc2ncnc(Nc3ccc(OCc4ccccn4)c(Cl)c3)c12 [Example 108, N-[3-chloro-4-(pyridin-2-ylmethoxy)phenyl]-2-[2-(ethylamino)ethyl]-4,5-dihydro-2H-pyrimido[5′,4′:4,5]thieno[2,3-e]indazol-6-amine] |
| ≤ 50 | ≤ 1 | Clc1cc(Nc2ncnc3sc4c(c23)CCc2n[nH]cc2-4)ccc1OCc1ccccn1 [Example 109, N-[3-chloro-4-(pyridin-2-ylmethoxy)phenyl]-4,5-dihydro-2H-pyrimido[5′,4′:4,5]thieno[2,3-e]indazol-6-amine] |
| ≤ 5 | ≤ 1 | Clc1cc(Nc2ncnc3sc4c(c23)CCc2c-4cnn2CCBr)ccc1OCc1ccccn1 [Example 110, 3-(2-bromoethyl)-N-[3-chloro-4-(pyridin-2-ylmethoxy)phenyl]-4,5-dihydro-3H-pyrimido[5′,4′:4,5]thieno[2,3-e]indazol-6-amine] |
| ≤ 50 | ≤ 1 | Clc1cc(Nc2ncnc3sc4c(c23)CCc2c-4cnn2CCN2CCOCC2)ccc1OCc1ccccn1 [Example 111, N-[3-chloro-4-(pyridin-2-ylmethoxy)phenyl]-3-(2-morpholin-4-ylethyl)-4,5-dihydro-3H-pyrimido[5′,4′:4,5]thieno[2,3-e]indazol-6-amine] |
